These results are taken from US12441732B2, “Potassium salt crystal form B of phosphodiesterase type 5 inhibitor, and preparation method and use therefor” (Guangzhou Huazhen Pharmaceutical Co., Ltd, priority 2019, dated 2025).

≈ marks a conversion by molar mass, not a printed value. Where two headings read alike, the source gives them in different places.

Data set [1] deals with PAH rats. Put plainly: Monocrotaline-induced pulmonary arterial hypertension (PAH) rats: RVSP, RVMI, pulmonary arterioles. Type of data set: in vivo, SD rats. Particulars: for RVMI, RV/(LV+S) / RVSP: 3 weeks after MCT. From the text:
SD rats were randomly divided into 8 groups, 15 rats/group: a normal control group (Vehicle); a PAH model group (MCT); a PAH+potassium salt crystal form B of WYQ mini-dose group (hereafter referring to as a mini-dose group); a PAH+potassium salt crystal form B of WYQ low-dose group (hereafter referring to as a low-dose group); a PAH+potassium salt crystal form B of WYQ medium-dose group (hereafter referring to as a medium-dose group); a PAH+potassium salt crystal form B of WYQ high-dose group (hereafter referring to as a high-dose group); a PAH+Sildenafil control group (hereafter referring to as a Sildenafil group); a PAH+Tadalafil control group (hereafter referring to as a Tadalafil group).
MCT was fully dissolved with 1M dilute HCl, diluted with double-distilled water, and adjusted to pH=7.2 with 3M NaOH, thereby preparing a MCT solution with a final concentration of 20 mg/ml.
The normal control group was injected subperitoneally with normal saline (50 mg/kg), and the rest of the groups were injected subperitoneally with MCT (50 mg/kg) at one time.
Mini-dose group: the potassium salt crystal form B of WYQ was prepared into a 0.4 mg/ml medicinal solution (ready to use) with normal saline, and administered by gavage at the dose of 2 mg·kg^−1d^−1;
Low-dose group: the potassium salt crystal form B of WYQ was prepared into a 1 mg/ml medicinal solution (ready to use) with normal saline, and administered by gavage at the dose of 5 mg·kg^−1d^−1;
Medium-dose group: the potassium salt crystal form B of WYQ was prepared into a 2 mg/ml medicinal solution (ready to use) with normal saline, and administered by gavage at the dose of 10 mg·kg^−1d^−1;
High-dose group: the potassium salt crystal form B of WYQ was prepared into a 4 mg/ml medicinal solution (ready to use) with normal saline, and administered by gavage at the dose of 20 mg·kg^−1d^−1;
Sildenafil group: Sildenafil was prepared into a 5 mg/ml medicinal solution (ready to use) with 0.5% sodium carboxymethyl cellulose, and administered by gavage at the dose of 25 mg·kg^−1d^−1;
Tadalafil group: Tadalafil was prepared into a 2 mg/ml medicinal solution (ready to use) with 0.5% sodium carboxymethyl cellulose, and administered by gavage at the dose of 10 mg·kg^−1d^−1.
The day of injection was the starting date of the experiment, and the administration was started after 7 days of modeling, once a day for 14 consecutive days.
After 3 weeks from the starting date of the experiment, RVSP data were collected on RM-6240E polygraph for each group of rats.
After 3 weeks from the starting date of the experiment, the animals were anesthetized, hemodynamically tested (RM-6240E polygraph), and sacrificed after manometry. The cardiopulmonary tissues were immediately dissected, and the right and left atria and great vessels were cut off along the atrioventricular junction with ophthalmic scissors to separate the right ventricle (RV) and left ventricular wall plus septum (LV+S), which was absorbed water with filter paper and weighed respectively, and RV/(LV+S), i.e., RVMI was calculated.
After 3 weeks from the starting date of the experiment, rats were heparinized with heparin (50 IU/100 g, intraperitoneal injection) for 5 min. The animals were anesthetized by injection of 20% urethane solution (0.5 ml/100 g), and the blood pressure indexes were detected and recorded.
The heart was dissected, the right ventricular wall was separated, and the left ventricle and the septum were separated, which were absorbed water with filter paper and weighed respectively to calculate the right ventricular hypertrophy index.
The lungs were dissected, wherein the right lung was ligated, and the left lung lobe was perfused with a fixative (4% paraformaldehyde) and then fixed in the fixative, dehydrated by ethanol gradient, allowed to become transparent by using xylene, immersed in wax, embedded in paraffin, sectioned (4 μm), stained with hematoxylin-eosin (HE), sealed with neutral gum and then observed under a microscope. […]

Data set [2] relates to PAH rats. Briefly: Penile erectile function observation in PAH rats. In kind it is in vivo, SD rats. As to the method:
After gavage treatment, penile erection in the animals was observed, wherein the time of penile erection phenomenon after gavage was recorded in each group.

For data set [3] the following is noted: background statement; cited from earlier work.
In the next data set the target is PDE5 (Homo sapiens, UniProt O76074). The conditions noted are these: background statement; cited from earlier work.
Data set [4] is described as follows: Dynamic solubility test in water, SGF, FaSSIF, FeSSIF at 37° C. The conditions noted are these: for solubility at 1 h / solubility at 4 h / solubility at 24 h: thermodynamic from solid, read-out: solubility (S). In kind it is physicochemical.
Data set [5] in a line: Solid-state stability test (one week, open). In kind it is physicochemical. Particulars: for HPLC purity: Purity after placement / Purity after placement/Starting purity / Crystal form change: open; for Crystal form change: XRPD. As to the method: The solid-state stability of the potassium salt crystal form B prepared in Embodiment 1 was tested, in which 5.22 mg of potassium salt crystal form B samples were weighed and left open at 25° C./60% RH, and 5.19 mg of potassium salt crystal form B samples were weighed and left open at 40° C./75% RH. After one week, all samples were subjected to XRPD characterization (see XRPD parameter settings in Table 1) and HPLC purity test (Agilent 1100) to detect changes in crystal form and purity, wherein HPLC purity test parameters were shown in Table 6. Meanwhile, 4.59 mg of a compound WYQ sample was weighed and left open at 25° C./60% RH, and 5.11 mg of the compound WYQ sample was weighed and left open at 40° C./75% RH. The solid-state stability of these samples were performed under the same conditions for comparative reference.

In a further data set the test system is IPF rats. Briefly: Bleomycin-induced idiopathic pulmonary fibrosis (IPF) rats. The conditions noted are these: 23 days. In kind it is in vivo, SD rats.
[6] abbreviates: Sildenafil group 25 mg·kg^−1d^−1.
Setting [7] is: Sildenafil group 25 mg·kg^−1d^−1 gavage once a day for 14 days.
[8] abbreviates: Tadalafil group 10 mg·kg^−1d^−1 gavage once a day for 14 days.

Method for IPF rats: The animals were purchased, and modeling was started after 3-7 days of acclimatization. The animals were weighed and anesthetized by inhalation with isoflurane. After the animals were confirmed to be anesthetized, the neck was disinfected, and the skin of the neck was cut. The main trachea was exposed by bluntly dissecting the muscle, a small incision was made between the tracheal rings, into which a PE-20 tube was inserted until the left main bronchus, and bleomycin was injected directly (dose: 3 mg/kg, volume: 1.0 ml/kg). The trachea and skin were sutured. After the surgery, the animals were kept warm at 37° C. under an electric blanket until the animals were fully awake and confirmed to be able to feed and drink freely before returning the animals to their normal feeding cages.
50 mg/kg Nintedanib group (BIBF-50 mg/kg): BIBF was prepared into a solution of 10 mg/ml with 0.5% sodium carboxymethyl cellulose and administered by gavage at a dose of 50 mg/kg^−1·d^−1;
Each group of rats was administered by gavage on the day of modeling, once a day for 23 days in total.
After 23 days of continuous administration, all animals in each group were euthanized by intraperitoneal injection of pentobarbital sodium anesthetic (100 mg/kg) in accordance with the KCl standard operating procedure for animal euthanasia. Whole-body perfusion was performed by low-temperature PBS, and then fixation was performed by whole-body formalin perfusion. The left lung was taken and perfused with an equal amount of formalin fluid for weighing and subsequent lung pathology-related tests.
Left lung gross pathological examination: after perfusion with an equal amount of formalin, the wet weight of the left lung after the perfusion was weighed and recorded with a microbalance; the volume of the left lung after perfusion was measured and recorded using a toe volume measuring instrument.
The whole lung of the left lung was dehydrated according to the KCl pathology standard SOPs, and paraffin blocks were prepared. The whole lung of the left lung was paraffin-sectioned at a thickness of 3-4 μm. HE staining and Masson Trichrome staining were performed according to the KCl pathology standard staining SOPs, and the slice panoramic scanning was carried out by a Hamamatsu NanoZoomer Digital Pathology (S210) slice scanner. The lung lesion area was calculated by Masson Trichrome staining of the sections, and the left lung fibrosis area (%) was the percentage of fibrosis area in the left lung area; 10 randomly selected fields of view of 1 mm^2 in the lesion area were semi-quantitatively scored by the pathologist under double-blind conditions according to the Ashcroft scoring system (as shown in Table 8 and FIG. 40).

Regarding `CCCc1nn(C)c2c(=O)[nH]c(-c3cc(S(=O)(=O)N4CCN(C)CC4)ccc3OCC)nc12` [Sildenafil, reference compound], in the data set with PAH rats [1] (setting [6]), the “WT % of pulmonary arterioles vs PAH model group” value is “not statistically significant” and the “tunica media thickness of pulmonary arterioles vs PAH model group” value was “decrease”. In addition, in the data set with PAH rats [1] (setting [7]), the “RVMI, RV/(LV+S)” value came to 48.4±1.0% and the RVSP stood at 60.4±5.0 mmHg. Further, the “rats showing penile erection” value with PAH rats [2] (Sildenafil group 25 mg·kg^−1d^−1, over 30 minutes after gavage) turned out to be 80%. In data set [3], the bioavailability result is given as “about 41%”. Further, the “selective effect on PDE5 relative to PDE6” value at PDE5 is listed as 10 times.
For orientation: solubility means how much of the substance goes into solution per volume. For the molecule `CCCCOC(=O)NS(=O)(=O)c1cccc(-c2nc3c(CCC)nn(C)c3c(=O)[nH]2)c1` [compound WYQ, 5-(2-H-5 (N-butoxycarbonylaminosulfonyl)phenyl)-1-methyl-3-propyl-1,6-dihydro-7H-pyrazolo [4,3-d]pyrimidin-7-one], the “crystal form change after XRPD assay (FC)” value in data set [4] (FaSSIF, 1 h) was “yes”; in data set [4] (FaSSIF, 4 h), “yes”; in data set [4] (FaSSIF, 24 h), “yes”; in data set [4] (FeSSIF, 1 h), “yes”; in data set [4] (FeSSIF, 4 h) it was “yes”; in data set [4] (FeSSIF, 24 h), “yes”. The “crystal form change after XRPD assay (FC)” value in data set [4] (SGF, 1 h) is on record as “yes”; in data set [4] (SGF, 4 h), “yes”; in data set [4] (SGF, 24 h), “yes”; in data set [4] (water, 1 h), “yes”; in data set [4] (water, 4 h), “yes”; in data set [4] (water, 24 h) it was “yes”. For the same molecule, the pH came to 6.5 in data set [4] (FaSSIF, 1 h); 6.5 in data set [4] (FaSSIF, 4 h); 6.6 in data set [4] (FaSSIF, 24 h); 5.0 in data set [4] (FeSSIF, 1 h); 5.0 in data set [4] (FeSSIF, 4 h); 5.0 in data set [4] (FeSSIF, 24 h). In addition, the pH in data set [4] (SGF, 1 h) was 2.4; in data set [4] (SGF, 4 h) it was 2.5; in data set [4] (SGF, 24 h) it was 2.4; in data set [4] (water, 1 h), 7.7; in data set [4] (water, 4 h), 7.9; in data set [4] (water, 24 h), 7.6. The solubility at 1 h was 1900 µg/mL (≈ 4250 µM) in data set [4] (fasted-state simulated intestinal fluid (FaSSIF), FaSSIF, 1 h); 160 µg/mL (≈ 358 µM) in data set [4] (fed-state simulated intestinal fluid (FeSSIF), FeSSIF, 1 h); 5.6 µg/mL (≈ 12.5 µM) in data set [4] (simulated gastric fluid (SGF), simulated gastric fluid, SGF, 1 h); 2200 µg/mL (≈ 4920 µM) in data set [4] (water, 1 h). Besides, the solubility at 4 h in data set [4] (fasted-state simulated intestinal fluid (FaSSIF), FaSSIF, 4 h) was 1900 µg/mL (≈ 4250 µM); in data set [4] (fed-state simulated intestinal fluid (FeSSIF), FeSSIF, 4 h), 160 µg/mL (≈ 358 µM); in data set [4] (simulated gastric fluid (SGF), simulated gastric fluid, SGF, 4 h), 6 µg/mL (≈ 13.4 µM); in data set [4] (water, 4 h) it was 1800 µg/mL (≈ 4020 µM). Moreover, the solubility at 24 h in data set [4] (fasted-state simulated intestinal fluid (FaSSIF), FaSSIF, 24 h) was 2000 µg/mL (≈ 4470 µM); in data set [4] (fed-state simulated intestinal fluid (FeSSIF), FeSSIF, 24 h) it was 160 µg/mL (≈ 358 µM); in data set [4] (simulated gastric fluid (SGF), simulated gastric fluid, SGF, 24 h) it was 6.9 µg/mL (≈ 15.4 µM); in data set [4] (water, 24 h), 2200 µg/mL (≈ 4920 µM). In data set [5] (25° C./60% RH), the “decrease in purity after one week of placement” value was “No significant decrease”. The “HPLC purity: Purity after placement” value is 97.17 area % in data set [5] (25° C./60% RH, one week) and 96.30 area % in data set [5] (40° C./75% RH, one week). Besides, the “Purity after placement/Starting purity” value is on record as 99.8% in data set [5] (25° C./60% RH, one week) and 98.9% in data set [5] (40° C./75% RH, one week). Besides, the Crystal form change entry is listed as “unchanged” in data set [5] (25° C./60% RH, one week) and “changed” in data set [5] (40° C./75% RH, one week). Moreover, in data set [5] (40° C./75% RH, one week), the “decrease in HPLC purity (area %)” value is listed as “about 1%”.
Consider `COC(=O)c1ccc2c(c1)NC(=O)/C2=C(\Nc1ccc(N(C)C(=O)CN2CCN(C)CC2)cc1)c1ccccc1` [BIBF, Nintedanib, reference compound], for which, in the data set with IPF rats (50 mg/kg gavage once a day), the Left lung volume was found to be 1736.9 ± 136.10 mm^3 and the Left lung weight was found to be 1.58 ± 0.12 g. Also, in the data set on IPF rats (50 mg/kg), the “alveolar tissue structure in left lung pulmonary fibrosis lesions (HE staining)” value was “some of the alveolar structures in the fibrotic lesions were still damaged” and the “alveolar tissue structure in left lung pulmonary fibrosis lesions (Masson Trichrom staining)” value is “some of the alveolar structures in the fibrotic lesions disappeared”. The “left lung pulmonary fibrosis lesions and lesion range vs the model group” value in the data set with IPF rats (different doses, H&E and Masson Trichrom staining) is “no significant difference”. Besides, in the data set with IPF rats (left lung, 50 mg/kg), the Fibrosis area came out at 56.91 ± 4.19% and the “Percentage of score (%) (≤3)” value is recorded as 78.75 ± 4.79 %.
In the case of `CN1CC(=O)N2[C@H](c3ccc4c(c3)OCO4)c3[nH]c4ccccc4c3C[C@@H]2C1=O` [Tadalafil, reference compound], in the data set with PAH rats [1] (setting [8]), the “RVMI, RV/(LV+S)” value came out at 41.8±1.9% and the RVSP is 52.5±2.4 mmHg. The “rats showing penile erection” value with PAH rats [2] (Tadalafil group 10 mg·kg^−1d^−1, over 30 minutes after gavage) came to 80%. Further, the biological half-life entry in data set [3] was “approximately 17.5 hours”.
